# Legend:
# [1] = target: T1, human renal renin (Homo sapiens, UniProt P00797); assay: Inhibition of human renal renin with human angiotensinogen substrate; angiotensin I formed measured by radioimmunoassay; assay type: biochemical; settings: 37 degrees C, pH 6.0; read-out: IC₅₀
# T1 construct: human renal renin, free from acid proteolytic activity; from tissue; host or cells: human kidney (concluded from the word 'renal')
# T1 sequence (P00797 67-406): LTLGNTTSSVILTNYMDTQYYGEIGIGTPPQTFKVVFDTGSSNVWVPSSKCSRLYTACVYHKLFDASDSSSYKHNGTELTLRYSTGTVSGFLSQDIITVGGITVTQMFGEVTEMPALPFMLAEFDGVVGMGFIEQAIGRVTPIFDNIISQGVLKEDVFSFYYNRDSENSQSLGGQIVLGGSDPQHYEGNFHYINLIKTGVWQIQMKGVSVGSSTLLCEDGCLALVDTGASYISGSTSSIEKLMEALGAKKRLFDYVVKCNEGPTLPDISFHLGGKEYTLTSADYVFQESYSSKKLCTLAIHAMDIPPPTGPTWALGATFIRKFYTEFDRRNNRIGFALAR
# Experimental: At the end of the incubation, the amount of angiotensin I formed is measured by radioimmunoassay and the molar concentration required to cause 50% inhibition, expressed as the IC₅₀ is calculated. […]
# [2] = test system: male cynomolgus monkeys (M. fascicularis); assay: In vivo intraduodenal activity: blood pressure in salt-depleted, anesthetized monkeys; settings: 1.0 mg/kg intraduodenal
# Experimental: Intraduodenal activity for the resultant compound from Example 105 was determined at 1.0 mg/kg in male cynomolgus monkeys (M. fascicularis) weighing between 3 and 5 kg. The monkeys were fed a low-salt chow and fresh fruit diet and treated twice with furosemide (5 mg/kg, po), 1 week and 1 day before the experiment. Following this regimen renders the monkeys in a salt-depleted state, characterized by normal base-line blood pressures but elevated plasma renin activities. The monkeys were fasted overnight and studied under anesthesia on the day of the experiment (sodium pentobarbitol, 15 mg/kg bolus + 0.10 mg/kg/min maintenance iv infusion). A femoral artery was catherterized for the direct and continuous measurement of blood pressure (Grass Pressure Transducer Model P23dB and Graph Polygraph Model 7). The compound was tested for intraduodenal activity via a catheter placed directly into the proximal segment of the duodenum following a laparotomy. Each monkey received only one dose of compound.
structure (smiles),measurement,setting,value
"CC(C)[C@@H](O)C(F)(F)[C@H](O)[C@H](CC1CCCCC1)NC(=O)[C@H](Cc1cscn1)NC(=O)[C@@H](CC(=O)N(C)CCn1cccn1)Cc1ccccc1 [Example 105, (2R)-2-Benzyl-3-[(2-pyrazol-1-ylethyl)methylaminocarbonyl]propionic acid amide of L-(4-thiazolyl)alanine-2(S)-amino-1-cyclohexyl-4,4-difluoro-3(R),5(R)-dihydroxy-6-methylheptane]",IC50,[1],0.35 nM
same,MBP (Mean blood pressure),"[2]; Monkey A, Time 0 min",85 mm Hg
same,MBP (Mean blood pressure),"[2]; Monkey A, Time 5 min",85 mm Hg
same,MBP (Mean blood pressure),"[2]; Monkey A, Time 10 min",74 mm Hg
same,MBP (Mean blood pressure),"[2]; Monkey A, Time 15 min",69 mm Hg
same,MBP (Mean blood pressure),"[2]; Monkey A, Time 20 min",65 mm Hg
same,MBP (Mean blood pressure),"[2]; Monkey A, Time 25 min",67 mm Hg
same,MBP (Mean blood pressure),"[2]; Monkey A, Time 30 min",70 mm Hg
same,MBP (Mean blood pressure),"[2]; Monkey A, Time 35 min",71 mm Hg
same,MBP (Mean blood pressure),"[2]; Monkey A, Time 40 min",74 mm Hg
same,MBP (Mean blood pressure),"[2]; Monkey A, Time 45 min",74 mm Hg
same,MBP (Mean blood pressure),"[2]; Monkey A, Time 50 min",76 mm Hg
same,MBP (Mean blood pressure),"[2]; Monkey A, Time 55 min",77 mm Hg
same,MBP (Mean blood pressure),"[2]; Monkey A, Time 60 min",79 mm Hg
same,MBP (Mean blood pressure),"[2]; Monkey A, Time 65 min",79 mm Hg
same,MBP (Mean blood pressure),"[2]; Monkey A, Time 70 min",79 mm Hg
same,MBP (Mean blood pressure),"[2]; Monkey A, Time 75 min",80 mm Hg
same,MBP (Mean blood pressure),"[2]; Monkey A, Time 80 min",79 mm Hg
same,MBP (Mean blood pressure),"[2]; Monkey A, Time 85 min",80 mm Hg
same,MBP (Mean blood pressure),"[2]; Monkey A, Time 90 min",80 mm Hg
same,MBP (Mean blood pressure),"[2]; Monkey A, Time 95 min",81 mm Hg
same,MBP (Mean blood pressure),"[2]; Monkey A, Time 100 min",82 mm Hg
same,MBP (Mean blood pressure),"[2]; Monkey A, Time 105 min",83 mm Hg
same,MBP (Mean blood pressure),"[2]; Monkey A, Time 109 min",81 mm Hg
same,MBP (Mean blood pressure),"[2]; Monkey A, Time 114 min",81 mm Hg
same,MBP (Mean blood pressure),"[2]; Monkey A, Time 119 min",81 mm Hg
same,MBP (Mean blood pressure),"[2]; Monkey B, Time 0 min",89 mm Hg
same,MBP (Mean blood pressure),"[2]; Monkey B, Time 5 min",88 mm Hg
same,MBP (Mean blood pressure),"[2]; Monkey B, Time 10 min",76 mm Hg
same,MBP (Mean blood pressure),"[2]; Monkey B, Time 15 min",79 mm Hg
same,MBP (Mean blood pressure),"[2]; Monkey B, Time 20 min",75 mm Hg
same,MBP (Mean blood pressure),"[2]; Monkey B, Time 25 min",74 mm Hg
same,MBP (Mean blood pressure),"[2]; Monkey B, Time 30 min",75 mm Hg
same,MBP (Mean blood pressure),"[2]; Monkey B, Time 35 min",78 mm Hg
same,MBP (Mean blood pressure),"[2]; Monkey B, Time 40 min",83 mm Hg
same,MBP (Mean blood pressure),"[2]; Monkey B, Time 44 min",83 mm Hg
same,MBP (Mean blood pressure),"[2]; Monkey B, Time 49 min",82 mm Hg
same,MBP (Mean blood pressure),"[2]; Monkey B, Time 54 min",83 mm Hg
same,MBP (Mean blood pressure),"[2]; Monkey B, Time 59 min",86 mm Hg
same,MBP (Mean blood pressure),"[2]; Monkey B, Time 64 min",83 mm Hg
same,MBP (Mean blood pressure),"[2]; Monkey B, Time 69 min",86 mm Hg
same,MBP (Mean blood pressure),"[2]; Monkey B, Time 74 min",87 mm Hg
same,MBP (Mean blood pressure),"[2]; Monkey B, Time 79 min",89 mm Hg
same,MBP (Mean blood pressure),"[2]; Monkey B, Time 84 min",87 mm Hg
same,MBP (Mean blood pressure),"[2]; Monkey B, Time 89 min",92 mm Hg
same,MBP (Mean blood pressure),"[2]; Monkey B, Time 94 min",86 mm Hg
same,MBP (Mean blood pressure),"[2]; Monkey B, Time 99 min",90 mm Hg
same,MBP (Mean blood pressure),"[2]; Monkey B, Time 104 min",91 mm Hg
same,MBP (Mean blood pressure),"[2]; Monkey B, Time 109 min",90 mm Hg
same,MBP (Mean blood pressure),"[2]; Monkey B, Time 114 min",92 mm Hg
same,MBP (Mean blood pressure),"[2]; Monkey B, Time 119 min",92 mm Hg

# — patent EP0416393A1, “Peptidyl difluorodiol renin inhibitors” (ABBOTT LABORATORIES, priority 1989, dated 1991)
